Like-named read-outs stand apart in the source and are kept apart here.
Tests used:
[1] = Macrophage cytotoxicity assay (resazurin); settings: mouse
Procedure: The cytotoxicity of the five selected compounds was tested using murine macrophage cell line J774.2 (ATCC ®TIB-67). […] For this, macrophages were seeded (5 × 10^4 cells/well) in 96-well flat-bottomed microplates and allowed to adhere for 24 h at 37 °C in 5% CO2. […] Thereafter, 20 µL of a 2.5 mM resazurin solution was added to each well, and the plates were incubated for another 4 h. The fluorescence emission was measured as described above. The half-maximal cytotoxicity concentration (CC50) was determined by Probit analysis.

[2] = system: L. mexicana promastigotes strain MNYC/BZ/62/M379; assay: Activity against L. mexicana promastigotes (resazurin method); settings: for SI (selectivity index): SI = CC50/IC50 (J774.2 / L. mexicana promastigotes)
Procedure: After incubation for 48 h at 26 °C, 20 µL of 2.5 mM resazurin solution was added to each well and incubated for 4 h. […] All assays were carried out in triplicate. The half-maximal inhibitory concentration (IC50) was determined by Probit analysis.

[3] = Solubility in the enzyme assay (observation); type: physicochemical; settings: prevented testing at higher concentration in the rLmTR assay
Procedure: (§1) Compounds ZINC04684558, ZINC09642432, ZINC12151998, ZINC14970552, and ZINC11841871 with affinity to the LmTR catalytic site with docking scores of at most −5.29 kcal/mol were selected to evaluate their in vitro inhibition of rLmTR activity. […] The assay was carried out following the conditions previously described to determine the rLmTR activity. The percentage of inhibition was obtained using the following equation:(1) % Inhibition=[…] where A0 is the enzyme activity without inhibitor and A1 is the enzyme activity in the presence of inhibitor.

recombinant LmTR (rLmTR) = assay: Inhibition of rLmTR activity (NADPH oxidation at 340 nm); type: biochemical, Leishmania mexicana; settings: 10% DMSO
Procedure: (§2) The enzymatic activity of rLmTR was assayed spectrophotometrically as previously described. The reaction mixture contained 40 mM Hepes, pH 7.5, 1 mM EDTA, 150 µM NADPH, and 30 ng rLmTR. The reaction was initiated by adding the substrate (T[S]2) at 400 µM and was allowed to proceed for 1 min. NADPH oxidation was followed at 340 nm, monitored every 20 s, in a Synergy™ H1 microplate reader (Biotek Instruments, Inc. Winooski, VT, USA). The decrease in the absorbance at 340 nm was used to determine the moles of substrate consumed. One unit of enzyme activity is defined as the amount of enzyme required to convert 1 μmol of NADPH to NADP per minute at 25 °C [42].
as §1

rLmTR = assay: Kinetic characterization of rLmTR with substrate T[S]2; type: biochemical, Leishmania mexicana; settings: T[S]2 as substrate, 150 µM NADPH
Procedure: as §2
The kinetic data were analyzed by linear regression fit to Michaelis–Menten kinetics and linearized by the double reciprocal transformation of Lineweaver and Burk.

[4] = Leishmania mexicana, 48 h, read-out: IC50 (leishmanicidal activity), L. mexicana promastigotes, 48 h at 26 °C

| SMILES | CC50 at 24 h ([1]; J774.2 macrophage cell line) [µM] | IC50 [2, 4] [µM] | SI (selectivity index) [2] | Solubility [3] | % Inhibition of rLmTR activity (recombinant LmTR (rLmTR); compound at 150 µM) [%] | % Inhibition of rLmTR activity (recombinant LmTR (rLmTR); compound at 100 µM) [%] | IC50 ([2]; read-out: IC50 (leishmanicidal activity), L. mexicana promastigotes, 48 h at 26 °C) [µM] | % Inhibition of rLmTR activity (recombinant LmTR (rLmTR); compound at 300 µM) [%] | CC50 at 24 h [1] [µM] | Km (rLmTR) [µM] |
| --- | --- | --- | --- | --- | --- | --- | --- | --- | --- | --- |
| CC(=O)N[C@@H]1c2ccccc2C2(CCN(C(=O)c3n[nH]c4ccccc34)CC2)[C@H]1OCc1ccccc1 [ZINC11841871] | 103 | 159 | 0.6 | poor solubility | 39.5 | – | – | – | – | – |
| O=C(NCc1ccc2ncccc2c1)c1cnn(-c2ncc3c(n2)-c2ccccc2CCC3)c1C1CC1 [ZINC12151998] | 53 | 58 | 0.9 | poor solubility | – | 32.9 | – | – | – | – |
| Cc1nnc(N2CCN(C(=O)Nc3ccc(F)cc3F)CC2)c2nn(-c3ccccc3)c(C)c12 [ZINC09642432] | 335 | > 200 | 1.5 | – | – | – | 222 | 40.1 | – | – |
| CCCCCCCCCCCCCCCCOP(=O)([O-])OCC[N+](C)(C)C [Miltefosine, reference compound] | – | 2.98 | 47 | – | – | – | – | – | 141 | – |
| N[C@@H](CCC(=O)N[C@H]1CSSC[C@H](NC(=O)CC[C@H](N)C(=O)O)C(=O)NCC(=O)NCCCNCCCCNC(=O)CNC1=O)C(=O)O [T[S]2, trypanothione disulfide] | – | – | – | – | – | – | – | – | – | 173 |
| CC1(C)C[C@H](NC(=O)c2cnn(-c3ncc4c(n3)-c3ccccc3CC4)c2C2CC2)CCO1 [ZINC14970552] | 219 | 147 | 1.4 | – | – | – | – | 35.7 | – | – |
| C[C@@H]1[C@H](O)[C@@H](C)/C=C/C=C/C=C/C=C/C=C/C=C/C=C/[C@H](O[C@@H]2O[C@H](C)[C@@H](O)[C@H](N)[C@@H]2O)C[C@@H]2O[C@](O)(C[C@@H](O)C[C@@H](O)[C@H](O)CC[C@@H](O)C[C@@H](O)CC(=O)O[C@H]1C)C[C@H](O)[C@H]2C(=O)O [Amphotericin B, reference compound] | – | 0.11 | 67 | – | – | – | – | – | 7.4 | – |
